Our source for the IC50 values is US20240327385A1, “SUBSTITUTED PIPERIDINE COMPOUNDS AS RENIN INHIBITORS” (priority 2023, published 2024).

A word on the IC50: it is the concentration needed to halve the response being measured.

human recombinant renin, sequence (P00797 67-406): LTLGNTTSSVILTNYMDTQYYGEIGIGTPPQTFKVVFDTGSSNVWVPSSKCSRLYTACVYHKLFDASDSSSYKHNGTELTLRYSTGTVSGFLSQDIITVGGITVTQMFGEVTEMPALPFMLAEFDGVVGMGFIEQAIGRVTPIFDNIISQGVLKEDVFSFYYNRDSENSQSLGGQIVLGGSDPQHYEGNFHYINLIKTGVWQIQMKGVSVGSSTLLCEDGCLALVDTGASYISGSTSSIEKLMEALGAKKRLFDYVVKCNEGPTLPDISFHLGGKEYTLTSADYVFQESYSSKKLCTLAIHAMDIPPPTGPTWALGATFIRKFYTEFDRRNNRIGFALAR

The target of this assay is human recombinant renin (Homo sapiens (Human), UniProt P00797). The assay is described as follows: human renin activity inhibition (SensoLyte 520 Renin Assay Kit Fluorimetric). It is filed as biochemical. The conditions noted are these: 30 min preincubation at 37° C., fluorescence at 530 nm after 15 min at 37° C., read-out: IC50 (nM), inhibitory effect on human renin activity. On the procedure:
The exemplary compounds of the disclosure were tested for their inhibitory effects on human renin activity, using a commercially available renin assay kit (SensoLyte® 520 Renin Assay Kit Fluorimetric), following the manufacture's manual.
Briefly, human recombinant renin (from the kit) was incubated with the compound of the disclosure or buffer for 30 min at 37° C. before substrate addition. Fluorescence intensity was measured at 530 nm after an incubation of 15 min at 37° C. Data was analyzed by Prism and fitted into a sigmodal curve for IC50 calculation.
Consider `CO[C@H]1C[C@H](Nc2nc(C(C)(C)C)ncc2C(=O)N(CC(C)C)C2CNCC(C(=O)N3CCOCC3)C2)C1` (stereo partly drawn) [Compound 17, (3S)—{N-(2-methylpropyl), N-{2-tert-butyl-3-[3-(trans-methoxy)cyclobutyl]amino}pyrimidine-5-carbonyl}amino-(5R)-(morpholine-N-carbonyl)-piperidine], for which the IC50 stood at 1.5 nM. With `CO[C@H]1C[C@H](Nc2cc(C3CC3)cnc2C(=O)N(CC(C)C)C2CNCC(C(=O)N3CCOCC3)C2)C1` (stereo partly drawn) [Compound 18, (3S)—{N-(2-methylpropyl), N-{5-cyclopropyl-3-[3-(trans-methoxy)cyclobutyl]amino}pyridine-2-carbonyl}amino-(5R)-(morpholine-N-carbonyl)-piperidine], the IC50 amounted to 1.2 nM. On to `CO[C@H]1C[C@@H](Nc2cc(C3CC3)cnc2C(=O)N(CC(C)C)C2CNCC(C(=O)N3CCOCC3)C2)C1` (stereo partly drawn) [Compound 19, (3S)—{N-(2-methylpropyl), N-{5-cyclopropyl-3-[3-(cis-methoxy)cyclobutyl]amino}pyridine-2-carbonyl}amino-(5R)-(morpholine-N-carbonyl)-piperidine], for which the IC50 turned out to be 1.5 nM. As for `CC(C)CN(C(=O)c1ncc(C2CC2)cc1NC1CCC1)C1CNCC(C(=O)N2CCOCC2)C1` [Compound 20, (3S)—[N-(2-methylpropyl), N-(5-cyclopropyl-3-cyclobutylamino)pyridine-2-carbonyl]amino-(5R)-(morpholine-N-carbonyl)-piperidine], the IC50 was 1.9 nM. `CC(C)CN(C(=O)c1ncc(C2CC2)cc1NC1CC1)C1CNCC(C(=O)N2CCOC[C@@H]2C)C1` (stereo partly drawn) [Compound 21, (3S)—[N-(2-methylpropyl), N-(5-cyclopropyl-3-cyclopropylamino)pyridine-2-carbonyl]amino-(5R)-[(3S)-methylmorpholine-N-carbonyl]-piperidine]: the IC50 was found to be 1.4 nM. With `CO[C@H]1C[C@H](Nc2cc(C3CC3)cnc2C(=O)N(CC(C)C)C2CNC[C@H](c3nnc(C)o3)C2)C1` (stereo partly drawn) [Compound 22, (3S)—{N-(2-methylpropyl), N-{5-cyclopropyl-3-[3-(trans-methoxy)cyclobutyl]amino}pyridine-2-carbonyl}amino-(5R)-(5-methyl-1,3,4-oxadiazol-2-yl)-piperidine], the IC50 is 1.3 nM.

Consider `CO[C@H]1C[C@H](Nc2cc(C3CC3)cnc2C(=O)N(CC(C)C)C2CNC[C@H](c3nnc(C4CC4)o3)C2)C1` (stereo partly drawn) [Compound 23, (3S)—{N-(2-methylpropyl), N-{5-cyclopropyl-3-[3-(trans-methoxy)cyclobutyl]amino}pyridine-2-carbonyl}amino-(5R)-(5-cyclopropyl-1,3,4-oxadiazol-2-yl)-piperidine], for which the IC50 came to 1.2 nM. For the molecule `CO[C@H]1C[C@H](Nc2cc(C3CC3)cnc2C(=O)N(CC(C)C)C2CNC[C@H](c3nnc(C4CC(F)(F)C4)o3)C2)C1` (stereo partly drawn) [Compound 24, (3S)—{N-(2-methylpropyl), N-{5-cyclopropyl-3-[3-(trans-methoxy)cyclobutyl]amino}pyridine-2-carbonyl}amino-(5R)-(3,3-diflurorocyclobutyl-1,3,4-oxadiazol-2-yl)-piperidine], the IC50 was found to be 1 nM.

`CC(C)CN(C(=O)c1ncc(C2CC2)cc1NC1CC1)[C@@H]1CNC[C@H](C(=O)N2CCOCC2)C1` [Compound 25, (3S)—[N-(2-methylpropyl), N-(5-cyclopropyl-3-cyclopropylamino)pyridine-2-carbonyl]amino-(5R)-(morpholine-N-carbonyl)-piperidine]: the IC50 is < 10 nM. In the case of `CO[C@H]1C[C@H](Nc2cc(C3CC3)cnc2C(=O)N(CC(C)C)[C@H]2CCCNC2)C1` [Compound 26, (3S)—{N-(2-methylpropyl), N-{5-cyclopropyl-3-[3-(trans-methoxy)cyclobutyl]amino}pyridine-2-carbonyl}amino-piperidine], the IC50 is < 20 nM. The figure for `CC[C@H]1COCCN1C(=O)[C@H]1CNC[C@@H](N(CC(C)C)C(=O)c2ncc(C3CC3)cc2N[C@H]2C[C@H](OC)C2)C1` [Compound 27, (3S)—{N-(2-methylpropyl), N-{5-cyclopropyl-3-[3-(trans-methoxy)cyclobutyl]amino}pyridine-2-carbonyl}amino-(5R)-[(3S)-ethylmorpholine-N-carbonyl]-piperidine] is < 250 nM; for `CO[C@H]1C[C@H](Nc2cc(C3CC3)cnc2C(=O)N(CC(C)C)[C@@H]2CNC[C@H](c3noc(C)n3)C2)C1` [Compound 28, (3S)—{N-(2-methylpropyl), N-{5-cyclopropyl-3-[3-(trans-methoxy)cyclobutyl]amino}pyridine-2-carbonyl}amino-(5R)-(5-methyl-1,2,4-oxadiazol-3-yl)-piperidine] it is < 10 nM. For `CO[C@H]1C[C@H](Nc2cc(C3CC3)cnc2C(=O)N(CC(C)C)[C@@H]2CNC[C@H](c3nc(C)no3)C2)C1` [Compound 29, (3S)—{N-(2-methylpropyl), N-{5-cyclopropyl-3-[3-(trans-methoxy)cyclobutyl]amino}pyridine-2-carbonyl}amino-(5R)-(3-methyl-1,2,4-oxadiazol-5-yl)-piperidine], the IC50 is < 10 nM. As for `CC(C)CN(C(=O)c1ncc(C2CC2)cc1NC1COC1)[C@@H]1CNC[C@H](C(=O)N2CCOCC2)C1` [Compound 30], the IC50 is < 10 nM. Turning to `CO[C@H]1C[C@H](Nc2cccnc2C(=O)N(CC(C)C)[C@@H]2CNCC(c3nnc(C4CC4)o3)C2)C1` (stereo partly drawn) [Compound 31, (3S)—{N-(2-methylpropyl), N-[3-(3-trans-methoxy)cyclobutyl]amino-pyridine-2-carbonyl}amino-(5R)-(5-cyclopropyl-1,3,4-oxadiazol-2-yl)-piperidine], the IC50 is < 10 nM.

For the molecule `CC(C)CN(C(=O)c1ncc(C2CC2)cc1NC1COC1)[C@@H]1CNCC(c2nnc(C3CC3)o2)C1` (stereo partly drawn) [Compound 32, (3S)—{N-(2-methylpropyl), N-[5-cyclopropyl-3-(oxetan-3-yl)amino]pyridine-2-carbonyl}amino-(5R)-(5-cyclopropyl-1,3,4-oxadiazol-2-yl)-piperidine], the IC50 is < 10 nM.

For the molecule `CO[C@H]1C[C@H](Nc2cc(C3CC3)nnc2C(=O)N(CC(C)C)[C@@H]2CNC[C@H](C(=O)N3CCOC[C@@H]3C)C2)C1` [Compound 33, (3S)—{N-(2-methylpropyl), N-{6-cyclopropyl-4-[3-(trans-methoxy)cyclobutyl]amino}pyridazine-3-carbonyl}amino-(5R)-[(3S)-3-methylmorpholine-4-carbonyl]-piperidine], the IC50 was < 250 nM. Consider `CO[C@H]1C[C@H](Nc2cc(C3CC3)cnc2C(=O)N(CC(C)C)[C@@H]2CNC[C@H](CO)C2)C1` [Compound 35, (3S)—{N-(2-methylpropyl), N-{5-cyclopropyl-3-[3-(trans-methoxy)cyclobutyl]amino}pyridine-2-carbonyl}amino-(5R)-hydroxymethyl-piperidine], for which the IC50 is < 20 nM. As for `CC(C)CN(C(=O)c1ncc(C2CC2)cc1NC1COC1)[C@H]1CCCNC1` [Compound 36, (3S)—{N-(2-methylpropyl), N-[5-cyclopropyl-3-(oxetan-3-yl)amino]pyridine-2-carbonyl}amino-piperidine], the IC50 was < 50 nM.

Consider `CO[C@H]1C[C@H](Nc2cc(C3CC3)cnc2C(=O)N(CC(C)C)[C@@H]2CNC[C@H](c3ncon3)C2)C1` [Compound 39, (3S)—{N-(2-methylpropyl), N-{5-cyclopropyl-3-[3-(trans-methoxy)cyclobutyl]amino}pyridine-2-carbonyl}amino-(5R)-(1,2,4-oxadiazol-3-yl)-piperidine], for which the IC50 was < 10 nM. With `CO[C@H]1C[C@H](Nc2cc(C3CC3)cnc2C(=O)N(CC(C)C)[C@@H]2CNC[C@H](c3nnco3)C2)C1` [Compound 40, (3S)—{N-(2-methylpropyl), N-{5-cyclopropyl-3-[3-(trans-methoxy)cyclobutyl]amino}pyridine-2-carbonyl}amino-(5R)-(1,3,4-oxadiazol-2-yl)-piperidine], the IC50 was < 10 nM. For `CO[C@H]1C[C@H](Nc2cc(C3CC3)cnc2C(=O)N(CC2CC2)[C@@H]2CNC[C@H](c3nnc(C)o3)C2)C1` [Compound 41], the IC50 is < 10 nM. The figure for `CC(C)CN(C(=O)c1ncc(C2CC2)cc1NC1COC1)[C@@H]1CNC[C@H](c2ncon2)C1` [Compound 42, (3S)—{N-(2-methylpropyl), N-[5-cyclopropyl-3-(oxetan-3-yl)amino]pyridine-2-carbonyl}amino-(5R)-(1,2,4-oxadiazol-3-yl)-piperidine] is < 30 nM; for `CC(C)CN(C(=O)c1ncc(C(F)(F)F)cc1NC1COC1)[C@@H]1CNC[C@H](C(=O)N2CCOCC2)C1` [Compound 43, (3S)—{N-(2-methylpropyl), N-[5-trifluoromethyl-3-(oxetan-3-yl)amino]pyridine-2-carbonyl}amino-(5R)-(morpholine-N-carbonyl)-piperidine] it is < 10 nM.

For `[2H]C([2H])([2H])O[C@H]1C[C@H](Nc2cc(C3CC3)cnc2C(=O)N(CC(C)C)[C@@H]2CNC[C@H](c3nnco3)C2)C1` [Compound 45, (3S)—{N-(2-methylpropyl), N-{5-cyclopropyl-3-[3-(trans-methoxy-d3)cyclobutyl]amino}pyridine-2-carbonyl}amino-(5R)-(1,3,4-oxadiazol-2-yl)-piperidine], the IC50 was < 10 nM.

In the case of `CO[C@H]1C[C@H](Nc2nc(C3CC3)ncc2C(=O)N(CC(C)C)[C@@H]2CNC[C@H](C(=O)N3CCOC[C@@H]3C)C2)C1` [Compound 46, (3S)—{N-(2-methylpropyl), N-{2-cyclopropyl-3-[3-(trans-methoxy)cyclobutyl]amino}pyrimidine-5-carbonyl}amino-(5R)-[(3S)-methylmorpholine-N-carbonyl]-piperidine], the IC50 was < 250 nM.
